Measured values reported in ChEMBL document CHEMBL3751691, “A Journey around the Medicinal Chemistry of Hepatitis C Virus Inhibitors Targeting NS4B: From Target to Preclinical Drug Candidates” (J Med Chem, 2016).
pEC50, pIC50, pKd, pKi: −log10 of the molar value.

Assays:
[1] = tested on: Hepatitis C virus; assay: Antiviral activity against HCV genotype 1b infected in human Huh7 cells assessed as inhibition of viral replication by luciferase reporter-based viral replicon assay; type: functional, organism-based, Hepacivirus hominis; conditions: Huh-7
[2] = tested on: Hepatitis C virus; assay: Antiviral activity against HCV genotype 1b after 3 days by luciferase reporter assay; type: functional, organism-based, Hepacivirus hominis; conditions: 72 h
[3] = tested on: Hepatitis C virus; assay: Antiviral activity against HCV genotype 1b infected in Huh7.5 cells assessed as inhibition of viral replication at 72 hrs by luciferase reporter-based viral replicon assay; type: functional, organism-based, Hepacivirus hominis; conditions: Huh7.5, 72 h
[4] = tested on: Hepatitis C virus; assay: Antiviral activity against HCV genotype 1b infected in human Huh7 cells assessed as inhibition of viral replication after 72 hrs by ELISA; type: functional, organism-based, Hepacivirus hominis; conditions: Huh-7, 72 h
[5] = Binding affinity to […] by fluorescence assay; set-up: species or system Hepacivirus hominis
[6] = tested on: Hepatitis C virus; assay: Antiviral activity against HCV genotype 2a (JFH-1) infected in human Huh7 cells assessed as inhibition of viral replication by luciferase reporter-based viral replicon assay; type: functional, organism-based, Hepacivirus hominis; conditions: JFH-1, Huh-7
[7] = tested on: Hepatitis C virus; assay: Antiviral activity against HCV genotype 6a infected in human Huh7 cells assessed as inhibition of viral replication by luciferase reporter-based viral replicon assay; type: functional, organism-based, Hepacivirus hominis; conditions: Huh-7
[8] = tested on: Hepatitis C virus; assay: Antiviral activity against HCV genotype 2b infected in human Huh7 cells assessed as inhibition of viral replication by luciferase reporter-based viral replicon assay; type: functional, organism-based, Hepacivirus hominis; conditions: Huh-7
[9] = tested on: Hepatitis C virus; assay: Antiviral activity against HCV genotype 3a infected in human Huh7 cells assessed as inhibition of viral replication by luciferase reporter-based viral replicon assay; type: functional, organism-based, Hepacivirus hominis; conditions: Huh-7
[10] = tested on: Hepatitis C virus; assay: Antiviral activity against HCV genotype 6o infected in human Huh7 cells assessed as inhibition of viral replication by luciferase reporter-based viral replicon assay; type: functional, organism-based, Hepacivirus hominis; conditions: subtype 6, Huh-7
[11] = tested on: Hepatitis C virus; assay: Antiviral activity against HCV genotype 4a infected in human Huh7 cells assessed as inhibition of viral replication by luciferase reporter-based viral replicon assay; type: functional, organism-based, Hepacivirus hominis; conditions: Huh-7
[12] = Binding affinity to HCV NS4B […] by quantitative PCR analysis; set-up: species or system Hepacivirus hominis
[13] = tested on: Hepatitis C virus; assay: Antiviral activity against HCV genotype 5a infected in human Huh7 cells assessed as inhibition of viral replication by luciferase reporter-based viral replicon assay; type: functional, organism-based, Hepacivirus hominis; conditions: Huh-7
[14] = Cytotoxicity against human HuH7 cells by Cell Titer-Glo assay; type: cell-based, Huh-7
[15] = tested on: Hepatitis C virus; assay: Antiviral activity against HCV genotype 1a (H77) infected in human Huh7 cells assessed as inhibition of viral replication by luciferase reporter-based viral replicon assay; type: functional, organism-based, Hepacivirus hominis; conditions: genotype 1a H77, Huh-7
[16] = tested on: Hepatitis C virus; assay: Antiviral activity against HCV genotype 1a infected in Huh7.5 cells assessed as inhibition of viral replication after 24 hrs by renilla luciferase reporter-based viral replicon assay; type: functional, organism-based, Hepacivirus hominis; conditions: subtype 1a, Huh7.5, 24 h
[17] = Cytotoxicity against human Huh7.5 cells infected with HCV genotype 1b after 24 hrs by Cell Titer-Glo assay; type: cell-based, Huh-7
[18] = tested on: Hepatitis C virus; assay: Antiviral activity against HCV genotype 1b infected in human Huh7.5 cells assessed as inhibition of viral replication after 24 hrs by renilla luciferase reporter-based viral replicon assay; type: functional, organism-based, Hepacivirus hominis; conditions: Huh-7, 24 h
[19] = tested on: Hepatitis C virus; assay: Antiviral activity against HCV genotype 2a; type: functional, organism-based, Hepacivirus hominis
[20] = tested on: Hepatitis C virus; assay: Antiviral activity against HCV genotype 1b; type: functional, organism-based, Hepacivirus hominis
[21] = tested on: Hepatitis C virus; assay: Antiviral activity against HCV genotype 1a infected in Huh7 cells assessed as inhibition of viral replication after 48 hrs by luciferase reporter-based viral replicon assay; type: functional, organism-based, Hepacivirus hominis; conditions: subtype 1a, Huh-7, 48 h
[22] = tested on: Hepatitis C virus; assay: Antiviral activity against HCV genotype 1b infected in Huh7 cells assessed as inhibition of viral replication after 48 hrs by luciferase reporter-based viral replicon assay; type: functional, organism-based, Hepacivirus hominis; conditions: Huh-7, 48 h
[23] = Cytotoxicity against human HuH7 cells infected with HCV after 72 hrs by crystal violet-based assay; type: cell-based; conditions: huh-7, 72 h
[24] = Cytotoxicity against human HuH7 cells infected with HCV genotype 1b after 48 hrs by WST-1 assay; type: cell-based, Huh-7
[25] = tested on: Hepatitis C virus; assay: Antiviral activity against HCV infected in human HuH7 cells assessed as inhibition of viral replication after 72 hrs by ELISA-based viral replicon assay; type: functional, organism-based, Hepacivirus hominis; conditions: Huh-7, 72 h
[26] = Inhibition of HCV NS3/4A protease; set-up: species or system Hepacivirus hominis
[27] = tested on: Hepatitis C virus; assay: Antiviral activity against HCV genotype 2a infected in Huh7.5 cells assessed as inhibition of viral replication at 72 hrs by luciferase reporter-based viral replicon assay; type: functional, organism-based, Hepacivirus hominis; conditions: Huh7.5, 72 h
[28] = Inhibition of HCV GST-tagged recombinant NS3/4A protease expressed in Escherichia coli by microfluidic affinity assay; set-up: species or system Hepacivirus hominis

Q: Which EC90 [1] does the source give for `CC(C)C[C@H]1CN(C/C=C/c2ccccc2)[C@@H](CC(C)C)C(=O)N1` here?
A: The EC90 was 3.3 µM.

Q: With `CC(C)C[C@H]1CN(C(=O)C2CC2)[C@@H](CC(C)C)C(=O)N1` as the compound, how does the EC90 [1] read?
A: Its EC90 is > 10 µM.

Q: Which EC90 [1] does the source give for `CC(C)C[C@H]1CN(C(=O)c2cccc(-c3ccccc3)c2)[C@@H](CC(C)C)C(=O)N1` here?
A: The EC90 was > 10 µM.

Q: Which EC90 [1] does the source give for `CC(C)C[C@H]1CN(C(=O)/C=C/c2ccc([N+](=O)[O-])cc2)[C@@H](CC(C)C)C(=O)N1` here?
A: Its EC90 is > 10 µM.

Q: Which EC90 [1] does the source give for `CC(C)C[C@H]1CN(C(=O)/C=C/c2ccc(Cl)cc2)[C@@H](CC(C)C)C(=O)N1` here?
A: Its EC90 is 1.6 µM.

Q: Which EC90 [1] does the source give for `CC(C)C[C@H]1CN(C(=O)/C=C/c2ccc(F)cc2)[C@@H](CC(C)C)C(=O)N1` here?
A: The EC90 was 1.5 µM.

Q: Which EC90 [1] does the source give for `CC(C)C[C@H]1CN(C(=O)c2coc(-c3ccccc3)n2)[C@@H](CC(C)C)C(=O)N1` here?
A: The EC90 was > 10 µM.

Q: With `Cc1cnc(C(=O)N[C@H]2CCCCC/C=C\[C@@H]3C[C@@]3(C(=O)NS(=O)(=O)C3CC3)NC(=O)[C@@H]3C[C@@H](Oc4nc5ccccc5c5ccccc45)CN3C2=O)cn1` as the compound, how does the pEC50 [2] read?
A: Its pEC50 is 9.68.

Q: With `Clc1ccc(Cn2c(/C=C/C3CCN(CC4CCCCC4)C3)nc3cc(Br)ccc32)cc1` (centres undefined) as the compound, how does the pEC50 [3] read?
A: Its pEC50 is 5.74.

Q: With `C[C@H]1CCCN1CCCOc1nn(Cc2ccc(Cl)cc2)c2ccc(-c3ccc(N4CCOCC4)nc3)cc12` as the compound, how does the pEC50 [3] read?
A: Its pEC50 is 5.48.

Q: Which EC90 [1] does the source give for `CC[C@H](C)[C@H]1CN(C(=O)c2cc(-c3ccc(F)cc3)on2)[C@@H](CC(C)C)C(=O)N1` here?
A: Its EC90 is > 10 µM.

Q: With `CC(=O)c1ccc(NC(=O)c2cc3c(C)nn(-c4ccccc4)c3s2)cc1` as the compound, how does the pEC50 [4] read?
A: The pEC50 was 5.49.

Q: And the pKd [5]?
A: Its pKd is 6.00.

Q: With `CC(C)c1ccc(NC(=O)c2ccccc2)cc1` as the compound, how does the pEC50 [4] read?
A: The pEC50 was 5.55.

Q: And the pKd [5]?
A: The pKd was 5.16.

Q: With `O=C(c1ccccc1)N1CCC2(CCCN(c3ncc(-c4ccccc4)c(-c4ccc(Cl)cc4)n3)C2)CC1` as the compound, how does the pEC50 [6] read?
A: Its pEC50 is 5.12.

Q: What about the pEC50 [7] of the same compound?
A: Its pEC50 is 6.10.

Q: And the pEC50 [8]?
A: The pEC50 was 5.66.

Q: And the pEC50 [9]?
A: The pEC50 was 7.36.

Q: What about the pEC50 [10] of the same compound?
A: The pEC50 was 5.02.

Q: What about the pEC50 [11] of the same compound?
A: Its pEC50 is 6.70.

Q: What about the pKd [12] of the same compound?
A: Its pKd is 7.34.

Q: And the pEC50 [13]?
A: Its pEC50 is 7.58.

Q: And the CC50 [14]?
A: The CC50 was > 43 µM.

Q: What about the pEC50 [1] of the same compound?
A: The pEC50 was 7.70.

Q: And the pEC50 [15]?
A: Its pEC50 is 6.10.

Q: With `Clc1ccc(Cn2nc(OCCCN3CCCC3)c3ccccc32)cc1` as the compound, how does the pEC50 [3] read?
A: Its pEC50 is 5.43.

Q: With `O=C(NCc1cccs1)c1nn2c(c1Cl)N[C@H](c1ccco1)C[C@@H]2C(F)(F)F` as the compound, how does the pEC50 [16] read?
A: Its pEC50 is 6.21.

Q: And the CC50 at 24 h [17]?
A: Its CC50 at 24 h is > 100 µM.

Q: And the pEC50 [18]?
A: The pEC50 was 6.20.

Q: With `COC(=O)c1c(NC(=O)Cc2cccs2)sc(C(=O)Nc2ccc(Cl)cc2)c1C` as the compound, how does the pEC50 [4] read?
A: Its pEC50 is 6.15.

Q: What about the pKd [5] of the same compound?
A: Its pKd is 6.52.

Q: With `O=C(c1ccccc1)N1CCC2(CCCN(c3ncc(Br)c(-c4ccc(Cl)cc4)n3)C2)CC1` as the compound, how does the pKd [12] read?
A: Its pKd is 7.28.

Q: What about the CC50 [14] of the same compound?
A: Its CC50 is 38.7 µM.

Q: What about the pEC50 [1] of the same compound?
A: The pEC50 was 6.76.

Q: What about the pEC50 [15] of the same compound?
A: Its pEC50 is 5.66.

Q: With `Cc1nccn1-c1nc(-c2ccc(Cl)cc2)cc(C(F)(F)F)n1` as the compound, how does the pEC50 [4] read?
A: Its pEC50 is 5.66.

Q: And the pKd [5]?
A: The pKd was 5.68.

Q: Which results are given for `COc1ccc(Cl)cc1Nc1nc(-c2cccnc2)cs1`?
A: pEC50 [4]: 5.82; pKd [5]: 5.77

Q: Which results are given for `O=C(NCc1cccs1)c1nn2c(c1Cl)NC(c1ccco1)CC2C(F)(F)F` (racemic)?
A: CC50 at 24 h [17]: > 100 µM; pEC50 [18]: 5.75

Q: With `CC(C)CN(C)c1nc(N)c(C(=O)N=C(N)N)nc1Cl` [5-(N-METHYL-N-ISOBUTYL)AMILORIDE] as the compound, how does the pEC50 [19] read?
A: Its pEC50 is 5.43.

Q: What about the pEC50 [20] of the same compound?
A: The pEC50 was 5.60.

Q: With `O=C(NCc1cccs1)c1cc2nc(-c3ccco3)cc(C(F)(F)Cl)n2n1` [ANGUIZOLE] as the compound, how does the pEC50 [21] read?
A: The pEC50 was 6.25.

Q: And the pEC50 [22]?
A: The pEC50 was 6.51.

Q: And the CC75 [23]?
A: Its CC75 is > 100 µM.

Q: What about the CC50 at 48 h [24] of the same compound?
A: The CC50 at 48 h was > 50 µM.

Q: What about the pKd [5] of the same compound?
A: Its pKd is 6.18.

Q: What about the pEC50 [25] of the same compound?
A: Its pEC50 is 6.20.

Q: With `CC(C)(C)NC(=O)N[C@H](C(=O)N1C[C@H]2[C@@H]([C@H]1C(=O)NC(CC1CCC1)C(=O)C(N)=O)C2(C)C)C(C)(C)C` (some centres undefined) [BOCEPREVIR] as the compound, how does the pKi [26] read?
A: The pKi was 7.85.

Q: With `Clc1ccc(Cn2c(CN3CCCC3)nc3ccccc32)cc1` [CLEMIZOLE] as the compound, how does the pEC50 [27] read?
A: Its pEC50 is 5.10.

Q: What about the pEC50 [3] of the same compound?
A: The pEC50 was 4.64.

Q: And the pIC50 [28]?
A: Its pIC50 is 7.62.
